Experimental findings from patent US8247170B2, “Detection of penicillin tolerance in Group B Streptococcus: single nucleotide polymorphisms in penicillin binding protein 4” (priority 2008, dated 2012) are described below.

In the assay the test system is GBS laboratory strains. Description: Penicillin induced lysis (OD600 change). Type of assay: cell-based, Group B Streptococcus. Conditions: 100×MIC90 Penicillin G 22 hours. The procedure: In this series of study, the three GBS laboratory strains (i.e., A909, NEM316, and O90R) were cultured for 18 hours at 37° C. in THB. Subcultures in THB were subsequently grown to exponential phase (OD600˜0.3) at 37° C. Cells were treated with 100×MIC90 Penicillin G for an additional 22 hours. OD600 of these cell cultures before (O.D. initial) and after penicillin treatment (O.D. experimental) was measured (N=3). The values of O.D. experimental were subtracted from O.D. initial. (See FIG. 2).
(I) Bacterial Strains and Culture Conditions. GBS strains A909 (serotype IA), 515 (serotype IA), NEM316 (serotype III), COHI (serotype III), 2603V/R (serotype V) and O90R (non-typable) were used in this study. E. coli Top10 cells were used for the recombination experiments. GBS was cultured in Todd Hewitt broth (THB) or Tryptic Soy 5% sheep blood (TS) media and E. coli in Luria-broth (LB) medium or agar. Antibiotics were used at the following concentrations: for GBS—penicillin G (MIC90 0.06 μg ml^−1), ampicillin (MIC90 0.12 μg ml^−1), vancomycin (MIC90 2 μg ml^−1), cefazolin (MIC90 1 μg ml^−1) and chloramphenicol (5 μg ml^−1); for E. coli—ampicillin (50 μg ml^−1) and chloramphenicol (5 μg ml^−1). Both GBS and E. coli cultures were grown at 37° C. (II) Tolerance Using the MBC:MIC Ratio Method. Three GBS laboratory strains (i.e., A909, NEM316, and O90R) were cultured overnight for 18 h at 37° C. in THB. Subcultures in THB were subsequently grown to exponential phase (OD600˜0.3; i.e. 5×10^5 cfu/ml) at 37° C. Cell cultures were then exposed to different concentrations of antibiotics (Penicillin G, Ampicillin, Cefozolin or Vancomycin). […] Cell cultures were allowed to re-grow for an additional 24 h at 37° C. before the OD600 was measured. […] The initial (in.) cellular ATP concentration ([ATP]) was measured using the ENLITEN (Promega) luciferase based reaction kit. […] The experimental (exp.) cellular ATP was extracted and the concentration was measured as stated above. […]

Consider `CC1(C)S[C@@H]2[C@H](NC(=O)Cc3ccccc3)C(=O)N2[C@H]1C(=O)O` [Penicillin G], for which the “change in OD600 (lysis, FIG. 2)” value (GBS strain A909) is “decrease in OD”; the “change in OD600 (lysis, FIG. 2)” value (GBS strain NEM316) is “did not”; the “change in OD600 (lysis, FIG. 2)” value (GBS strain O90R) was “did not”.
